# Test results: patent publication US10954252B1, “Inhibitors of human immunodeficiency virus replication” (ViiV HEALTHCARE UK (NO.5) LIMITED, priority 2017, dated 2021)
# Columns and labels:
# [1] = system: recombinant NL4-3 virus (nef section replaced with Renilla luciferase gene) in MT-2 cells; assay: HIV cell culture assay (antiviral activity, luciferase readout); assay type: cell-based; conditions: MT-2 cells infected for 4-5 days with recombinant NL4-3 luciferase virus
# Summary of the method: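 NL4-3 reporter virus carrying Renilla luciferase in place of part of nef, produced in 293T cells, was used to infect MT-2 cells for 4-5 days with serial compound dilutions. Luciferase activity was read with a live-cell substrate; EC50 derived from the median effect equation.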
# [2] = Compound cytotoxicity, XTT-based colorimetric assay; assay type: cell-based; conditions: human, uninfected MT2 cells
# Summary of the method: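 CC50 from uninfected MT2 cells run under the antiviral-assay protocol without virus. Viability read on day 4 by XTT colorimetric assay.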
SMILES,"CC50 at 4 days ([2]; Table 1, day 4, XTT)","EC50 ([1]; Renilla, NL43, Table 1a)","CC50 at 4 days ([2]; Table 1a, day 4, XTT)",also measured
"Cn1nc(NS(C)(=O)=O)c2c(Cl)ccc(-c3cc4cn[nH]c4nc3C(Cc3cc(F)cc(F)c3)NC(=O)Cn3nc(C(F)F)c4c3C(F)(F)[C@@H]3C[C@H]43)c21 (single isomer, unassigned) [Example 6.1]",> 10000 nM,,,EC50 ([1]; Table 1): 1020 nM
"O=C(Cn1nc(C(F)F)c2c1C(F)(F)[C@@H]1C[C@H]21)NC(Cc1cc(F)cc(F)c1)c1ncc2nc[nH]c2c1-c1ccc2scnc2c1 (single isomer, unassigned) [Example 7.1]",16200 nM,,,EC50 ([1]; Table 1): 140 nM
"Cn1nc(NS(C)(=O)=O)c2c(Cl)ccc(-c3c(C(Cc4cc(F)cc(F)c4)NC(=O)Cn4nc(C(F)F)c5c4C(F)(F)[C@@H]4C[C@H]54)ncc4[nH]cnc34)c21 (single isomer, unassigned) [Example 7.3]",> 10000 nM,,,EC50 ([1]; Table 1): 10000 nM
"Cn1nc(NS(C)(=O)=O)c2c(Cl)ccc(-c3cc4ccccc4nc3C(Cc3cc(F)cc(F)c3)NC(=O)Cn3nc(C(F)F)c4c3C(F)(F)[C@@H]3C[C@H]43)c21 (single isomer, unassigned) [Example 8.1]",> 10000 nM,,,EC50 ([1]; Table 1): 0.2 nM
"Cn1nc(NS(C)(=O)=O)c2c(Cl)ccc(-n3c([C@H](Cc4cc(F)cc(F)c4)NC(=O)Cn4nc(C(F)F)c5c4C(F)(F)[C@@H]4C[C@H]54)nc4ncccc4c3=O)c21 (single isomer, unassigned) [Example 10.39]",> 10000 nM,,,EC50 ([1]; Table 1): 6.98 nM
"CS(=O)(=O)Nc1nn(CC(F)F)c2c(-n3c([C@H](Cc4cc(F)cc(F)c4)NC(=O)Cn4nc(C(F)F)c5c4C(F)(F)C4CC54)nc4ncccc4c3=O)ccc(Cl)c12 (single isomer, unassigned) [Example 14.1]",> 10000 nM,,,"EC50 ([1]; Renilla, NL43, Table 1): 49 nM"
"Cn1nc(NS(C)(=O)=O)c2c(Cl)ccc(-n3c([C@H](Cc4cc(F)cc(F)c4)NC(=O)Cn4nc(C(F)F)c5c4C(F)(F)[C@@H]4C[C@H]54)nc4ccccc4c3=O)c21 (single isomer, unassigned) [Example 16]",> 10000 nM,,,"EC50 ([1]; Renilla, NL43, Table 1): 49 nM"
"COc1ccc2c(=O)n(-c3ccc(Cl)c4c(NS(C)(=O)=O)nn(C)c34)c([C@H](Cc3cc(F)cc(F)c3)NC(=O)Cn3nc(C(F)F)c4c3C(F)(F)[C@@H]3C[C@H]43)nc2c1 (single isomer, unassigned) [Example 17]",> 10000 nM,,,"EC50 ([1]; Renilla, NL43, Table 1): 61 nM"
"Cn1nc(NS(C)(=O)=O)c2c(Cl)ccc(-n3c([C@H](Cc4cc(F)cc(F)c4)NC(=O)Cn4nc(C(F)F)c5c4C(F)(F)[C@@H]4C[C@H]54)nc4cccc(F)c4c3=O)c21 (single isomer, unassigned) [Example 19]",> 8000 nM,,,"EC50 ([1]; Renilla, NL43, Table 1): 130 nM"
"Cn1nc(NS(C)(=O)=O)c2c(Cl)ccc(-n3c([C@H](Cc4cc(F)cc(F)c4)NC(=O)Cn4nc(C(F)F)c5c4C(F)(F)[C@@H]4C[C@H]54)nc4cc(C#N)ccc4c3=O)c21 (single isomer, unassigned) [Example 20]",> 10000 nM,,,"EC50 ([1]; Renilla, NL43, Table 1): 24 nM"
"Cn1nc(NS(C)(=O)=O)c2c(Cl)ccc(-n3c([C@H](Cc4cc(F)cc(F)c4)NC(=O)Cn4nc(C(F)F)c5c4C(F)(F)[C@@H]4C[C@H]54)nc4ccc(F)cc4c3=O)c21 (single isomer, unassigned) [Example 21]",> 2700 nM,,,"EC50 ([1]; Renilla, NL43, Table 1): 45 nM"
"Cn1nc(NS(C)(=O)=O)c2c(Cl)ccc(-n3c([C@H](Cc4cc(F)cc(F)c4)NC(=O)Cn4nc(C(F)F)c5c4C(F)(F)[C@@H]4C[C@H]54)nc4cccc(Cl)c4c3=O)c21 (single isomer, unassigned) [Example 22.2]",> 1000 nM,,,"EC50 ([1]; Renilla, NL43, Table 1): 130 nM"
"CS(=O)(=O)Nc1nn(CC(F)F)c2c(-n3c([C@H](Cc4cc(F)cc(F)c4)NC(=O)Cn4nc(C(F)F)c5c4C(F)(F)[C@@H]4C[C@H]54)nc4ncccc4c3=O)ccc(Cl)c12 (single isomer, unassigned) [Example 44.1]",,0.049 nM,> 10000 nM,
"Cn1nc(NS(C)(=O)=O)c2c(Cl)ccc(-n3c([C@H](Cc4cc(F)cc(F)c4)NC(=O)Cn4nc(C(F)F)c5c4CCC5)nc4ncccc4c3=O)c21 (single isomer, unassigned) [Example 46.1]",,10.3 nM,> 1000 nM,
"Cc1ccn(CC(=O)N[C@@H](Cc2cc(F)cc(F)c2)c2nc3ncccc3c(=O)n2-c2ccc(Cl)c3c(NS(C)(=O)=O)nn(C)c23)n1 (single isomer, unassigned) [Example 47.1]",,,> 1000 nM,EC50 ([1]; Table 1a): 227 nM
"Cn1nc(NS(C)(=O)=O)c2c(Cl)ccc(-n3c([C@H](Cc4cc(F)cc(F)c4)NC(=O)Cn4nc5c(c4C(F)F)CCC5)nc4ncccc4c3=O)c21 (single isomer, unassigned) [Example 48.2]",,0.16 nM,> 1000 nM,
"Cn1nc(NS(C)(=O)=O)c2c(Cl)ccc(-n3c([C@H](Cc4cc(F)cc(F)c4)NC(=O)Cc4n[nH]c5ccc(O)cc45)nc4ncccc4c3=O)c21 (single isomer, unassigned) [Example 49.1]",,93 nM,> 1000 nM,

SMILES,"CC50 at 4 days ([2]; Table 1, day 4, XTT)","EC50 ([1]; Renilla, NL43, Table 1a)","CC50 at 4 days ([2]; Table 1a, day 4, XTT)",also measured
"Cn1nc(NS(C)(=O)=O)c2c(Cl)ccc(-n3c([C@H](Cc4cc(F)cc(F)c4)NC(=O)Cn4ccc(N)n4)nc4ncccc4c3=O)c21 (single isomer, unassigned) [Example 50.2]",,32.1 nM,> 1000 nM,
"COc1ccc2c(=O)n(-c3ccc(Cl)c4c(NS(C)(=O)=O)nn(CC(F)F)c34)c(C(Cc3cc(F)cc(F)c3)NC(=O)Cn3nc(C(F)F)c4c3C(F)(F)[C@@H]3C[C@H]43)nc2n1 (single isomer, unassigned) [Example 54.1]",,43.4 nM,> 1000 nM,
"COc1ccc2c(=O)n(-c3ccc(Cl)c4c(NS(=O)(=O)C5CC5)nn(CC(F)F)c34)c([C@H](Cc3cc(F)cc(F)c3)NC(=O)Cn3ccc(C4CC4)n3)nc2n1 (single isomer, unassigned) [Example 57.2]",,0.33 nM,> 1000 nM,
"CCOc1ccc2c(=O)n(-c3ccc(Cl)c4c(NS(C)(=O)=O)nn(C)c34)c([C@H](Cc3cc(F)cc(F)c3)NC(=O)Cn3ccc(C4CC4)n3)nc2n1 (single isomer, unassigned) [Example 59.1]",,47 nM,> 1000 nM,
"CN(c1nn(C)c2c(-c3cc4c(ccn4C)nc3[C@H](Cc3cc(F)cc(F)c3)NC(=O)Cn3nc(C(F)F)c4c3C(F)(F)[C@@H]3C[C@H]43)ccc(Cl)c12)S(C)(=O)=O (single isomer, unassigned) [Example 64]",,4 nM,> 10000 nM,
"Cc1ccc(C)c2c(=O)n(-c3ccc(Cl)c4c(NS(C)(=O)=O)nn(C)c34)c([C@H](Cc3cc(F)cc(F)c3)NC(=O)Cn3nc(C(F)F)c4c3C(F)(F)[C@@H]3C[C@H]43)nc12 (single isomer, unassigned) [Example 68]",,4.69 nM,> 1000 nM,
"Cn1nc(NS(C)(=O)=O)c2cccc(-n3c(C(Cc4cc(F)cc(F)c4)NC(=O)Cn4nc(C(F)F)c5c4C(F)(F)[C@@H]4C[C@H]54)nc4ccccc4c3=O)c21 (single isomer, unassigned) [Example 69]",,78.3 nM,> 1000 nM,
"Cn1nc(NS(C)(=O)=O)c2c(Cl)ccc(-n3c([C@H](Cc4cc(F)cc(F)c4)NC(=O)Cn4nc(C(F)F)c5c4C(F)(F)[C@@H]4C[C@H]54)nc4c(F)cccc4c3=O)c21 (single isomer, unassigned) [Example 71]",,9.58 nM,> 1000 nM,
"Cn1nc(NS(C)(=O)=O)c2c(Cl)ccc(-n3c([C@H](Cc4cc(F)cc(F)c4)NC(=O)Cn4nc(C(F)F)c5c4C(F)(F)[C@@H]4C[C@H]54)nc4c(F)cc(F)cc4c3=O)c21 (single isomer, unassigned) [Example 74]",,0.0513 nM,> 1000 nM,
"COc1ccc2c(=O)n(-c3ccc(Cl)c4c(NS(C)(=O)=O)nn(C)c34)c([C@H](Cc3cc(F)cc(F)c3)NC(=O)Cn3nc(C(F)F)c4c3C(F)(F)[C@@H]3C[C@H]43)nc2c1F (single isomer, unassigned) [Example 76]",,0.118 nM,> 1000 nM,
"COc1ccc2c(=O)n(-c3ccc(Cl)c4c(NS(C)(=O)=O)nn(C)c34)c([C@H](Cc3cc(F)cc(F)c3)NC(=O)Cn3ccc(C4CC4)n3)nc2c1 (single isomer, unassigned) [Example 78]",,0.478 nM,> 1000 nM,
"COc1ccc2c(=O)n(-c3cccc4c(NS(C)(=O)=O)nn(C)c34)c([C@H](Cc3cc(F)cc(F)c3)NC(=O)Cn3nc(C(F)F)c4c3C(F)(F)[C@@H]3C[C@H]43)nc2c1 (single isomer, unassigned) [Example 80]",,0.389 nM,> 1000 nM,
"Cn1nc(NS(C)(=O)=O)c2c(Cl)ccc(-c3cc4cc[nH]c4nc3C(Cc3cc(F)cc(F)c3)NC(=O)Cn3nc(C(F)F)c4c3C(F)(F)[C@@H]3C[C@H]43)c21 (single isomer, unassigned) [Example 83]",,,> 10000 nM,EC50 ([1]; Table 1a): 1.02 nM
"Cn1nc(NS(C)(=O)=O)c2c(Cl)ccc(-c3cc4cc[nH]c4nc3[C@H](Cc3cc(F)cc(F)c3)NC(=O)Cn3nc(C(F)F)c4c3C(F)(F)[C@@H]3C[C@H]43)c21 (single isomer, unassigned) [Example 84]",,0.94 nM,> 10000 nM,
"Cn1nc(NS(C)(=O)=O)c2c(Cl)ccc(-c3cc4cc[nH]c4nc3[C@@H](Cc3cc(F)cc(F)c3)NC(=O)Cn3nc(C(F)F)c4c3C(F)(F)[C@@H]3C[C@H]43)c21 (single isomer, unassigned) [Example 87]",,72.4 nM,> 10000 nM,
"Cn1nc(NS(C)(=O)=O)c2c(Cl)ccc(-c3cc4[nH]cc(Cl)c4nc3[C@H](Cc3cc(F)cc(F)c3)NC(=O)Cn3nc(C(F)F)c4c3C(F)(F)[C@@H]3C[C@H]43)c21 (single isomer, unassigned) [Example 89]",,0.66 nM,> 10000 nM,
